# Reference: ChEMBL document CHEMBL1201862, “PubChem BioAssay data set” (2004)
#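 Method: 48-hour compound exposure of cells in 96-well plates, five concentrations, linear interpolation of endpoints. Abbreviation: GI50, concentration required for 50% inhibition of growth.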 Activity calls are given as the source filed them. Rule as the data show it: active = GI50 up to about 1.1 µM and inactive = higher. *1 amine or outer side, *2 acyl side, *3 side chain or, on linkers, in order; H or OH if unused. Where a SMILES comes first, the peptide text is derived from it. [ ]: non-standard residue; d: D form. The star is where a group is joined. ξ: configuration not given here. X26 = O=C([C@H]1CCC[C@H]1N[*:1])[*:2]; ξW = NC(Cc1c[nH]c2ccccc12)C(=O)O; ξF = NC(Cc1ccccc1)C(=O)O; Boc = CC(C)(C)OC(=O)*; ξK = NCCCCC(N)C(=O)O; ξT = CC(O)C(N)C(=O)O; tBu = CC(C)(C)*
# Legend:
# Test in all cases: inhibition of tumour cell growth, NCI panel, 48 h
# [1] = test system: IGROV-1
# [2] = test system: SR
# [3] = test system: CAKI-1
# [4] = test system: SF-539
# [5] = test system: SK-MEL-2
# [6] = test system: K562
# [7] = test system: SW-620
# [8] = test system: UO-31
# [9] = test system: SF-268
# [10] = test system: OVCAR-5
# [11] = test system: NCI-H226
# [12] = test system: MDA-MB-231
# [13] = test system: HT-29
# [14] = test system: DU-145
# [15] = test system: Hs-578T
# [16] = test system: RPMI-8226
# [17] = test system: SK-OV-3
# [18] = test system: M14
# [19] = test system: T47D
# [20] = test system: OVCAR-4
SMILES,GI50 [1],GI50 [2],GI50 [3],GI50 [4],GI50 [5],GI50 [6],GI50 [7],GI50 [8],GI50 [9],GI50 [10],GI50 [11],GI50 [12],GI50 [13],GI50 [14],GI50 [15],GI50 [16],GI50 [17],GI50 [18],GI50 [19],GI50 [20]
C[N+](C)(N)Cc1csc(-c2ccc(Cl)cc2)n1,> 100 µM (inactive),> 100 µM (inactive),> 100 µM (inactive),> 100 µM (inactive),> 100 µM (inactive),> 100 µM (inactive),> 100 µM (inactive),> 100 µM (inactive),46.5 µM (inactive),> 100 µM (inactive),48.2 µM (inactive),> 100 µM (inactive),> 100 µM (inactive),> 100 µM (inactive),23.9 µM (inactive),> 100 µM (inactive),> 100 µM (inactive),> 100 µM (inactive),80 µM (inactive),> 100 µM (inactive)
CSc1c(C(=O)Nc2ccc(C)cc2)c(N)nn1-c1ccccc1,36.1 µM (inactive),9.89 µM (inactive),23.4 µM (inactive),35.8 µM (inactive),> 100 µM (inactive),> 100 µM (inactive),> 100 µM (inactive),> 100 µM (inactive),46 µM (inactive),> 100 µM (inactive),> 100 µM (inactive),40.6 µM (inactive),> 100 µM (inactive),42.8 µM (inactive),46.9 µM (inactive),> 100 µM (inactive),64.6 µM (inactive),36.7 µM (inactive),98.9 µM (inactive),13 µM (inactive)
CC(C)(C)c1ccc2c(c1)OCc1n[nH]c(n1)COc1cc(C(C)(C)C)ccc1OCCOCCO2,5.69 µM (inactive),3.09 µM (inactive),4.18 µM (inactive),7.29 µM (inactive),1.81 µM (inactive),4.27 µM (inactive),3.16 µM (inactive),3.67 µM (inactive),4.37 µM (inactive),5.96 µM (inactive),2.71 µM (inactive),9.48 µM (inactive),3.01 µM (inactive),6.52 µM (inactive),2.26 µM (inactive),2.99 µM (inactive),3.77 µM (inactive),2.86 µM (inactive),3.48 µM (inactive),0.248 µM (active)
COc1ccc2c3c([nH]c2c1)[C@H]1C[C@H]2[C@H](C[C@@H](O)[C@H](OC)[C@H]2C(=O)O)CN1CC3,> 100 µM (inactive),> 100 µM (inactive),> 100 µM (inactive),> 100 µM (inactive),> 100 µM (inactive),> 100 µM (inactive),> 100 µM (inactive),> 100 µM (inactive),> 100 µM (inactive),> 100 µM (inactive),> 100 µM (inactive),> 100 µM (inactive),> 100 µM (inactive),> 100 µM (inactive),62.8 µM (inactive),> 100 µM (inactive),> 100 µM (inactive),> 100 µM (inactive),> 100 µM (inactive),> 100 µM (inactive)
CC(OC(C)(C)C)C1NC(=O)C(CCCCNC(=O)OC(C)(C)C)NC(=O)C(Cc2c[nH]c3ccccc23)NC(=O)C(Cc2ccccc2)NC(=O)[C@H]2CCC[C@H]2NC(=O)C(Cc2ccccc2)NC1=O (stereo not given in full) (cyclo([X26][ξF][ξW][ξK](Boc)[ξT](tBu)[ξF])),50.4 µM (inactive),72.3 µM (inactive),> 100 µM (inactive),75.9 µM (inactive),26.1 µM (inactive),9.57 µM (inactive),> 100 µM (inactive),> 100 µM (inactive),> 100 µM (inactive),17.9 µM (inactive),39.2 µM (inactive),31.8 µM (inactive),11.4 µM (inactive),93.8 µM (inactive),2.67 µM (inactive),8.71 µM (inactive),48 µM (inactive),28.3 µM (inactive),15.2 µM (inactive),> 100 µM (inactive)
CCCCCCCCCCCCCCCCCCOCC(COP(=O)([O-])OCC[N+](C)(C)C)OC (stereo not given) [EDELFOSINE],6.67 µM (inactive),7.87 µM (inactive),13.1 µM (inactive),> 58.5 µM (inactive),31.3 µM (inactive),44.3 µM (inactive),19.1 µM (inactive),27.4 µM (inactive),17.2 µM (inactive),15.9 µM (inactive),26.4 µM (inactive),59.7 µM (inactive),7.28 µM (inactive),> 100 µM (inactive),> 100 µM (inactive),20.9 µM (inactive),18.2 µM (inactive),32.9 µM (inactive),> 100 µM (inactive),26.6 µM (inactive)
O=C1c2scnc2-c2nccc3c2c1nc1ccccc13 [KUANONIAMINE A],0.774 µM (active),0.137 µM (active),1.63 µM (inactive),0.232 µM (active),1.01 µM (active),0.682 µM (active),0.288 µM (active),1.16 µM (inactive),1.78 µM (inactive),2.63 µM (inactive),1.44 µM (inactive),0.318 µM (active),2.55 µM (inactive),1.6 µM (inactive),1.8 µM (inactive),1.37 µM (inactive),2.54 µM (inactive),0.564 µM (active),0.215 µM (active),1.16 µM (inactive)
